Experimental data published in patent US11464749B2, “Bismuth-thiol compositions and methods of use” (Microbion Corporation, priority 2018, dated 2022).
Values joined by “and” are separate entries in the source; they are usually repeats but may differ in a detail not shown here. Equal values may be shown once. Read-outs that look alike come from different tables or passages of the source.

Tests used:
[1] = system: MABSC / M. abscessus biofilms; assay: Activity against CF-isolate biofilms; type: cell-based; conditions: AMT0130-8 (MABSC CF-isolate)
Candida glabrata = assay: Broth microdilution antifungal susceptibility (Example 13); type: cell-based; conditions: Nakaseomyces glabratus
Candida krusei = assay: as above; type: cell-based; conditions: Pichia kudriavzevii
A. niger = assay: as above; type: cell-based; conditions: Aspergillus niger, ATCC29508; read-out: MIC0 48 hr
[2] = system: vancomycin-intermediate Staphylococcus aureus (VISA); assay: Broth microdilution MIC (Example 12); conditions: Staphylococcus aureus
S. maltophilia = assay: MIC against CF bacterial strains (Example 5); conditions: Stenotrophomonas maltophilia
[3] = Face mask inhalation in beagle dogs: clinical chemistry; type: in vivo; conditions: sampling times not given
Protocol: Once adequately conditioned to the restraint device and face-masks, the animals are individually exposed to the test article aerosols. Animals receive a single face-mask inhalation exposure in a ramp study design to test article aerosols for up to 60 min. Animal observations during and post exposure determine the tolerance of inhaled BisEDT aerosols.
Group 1 (vehicle) are exposed to a vehicle atmosphere for 30 minutes. Group 2 (50 μg/kg) are exposed to BisEDT for 30 minutes. Target concentrations and exposure durations for Groups 3-5 are based on the presence of any toxicity via clinical observations or gross necropsy findings. In each of Groups 3-5, if no adverse clinical signs of toxicity are observed, the next groups' exposure will be conducted at a higher target dose. If adverse clinical signs of toxicity are observed, the next groups' exposure will be conducted at a lower target dose. This approach is repeated for all BisEDT doses. The final documented exposure duration is the maximum tolerated dose or the maximum feasible dose.
The aerosol generation system couples a commercially available compressed air jet nebulizer to a chamber that allows the aerosols to transition to the animals. Exposure is by face-mask inhalation per the study design above. […] Formulation concentration and exposure duration are modulated to achieve target doses if necessary.
Blood Collections and Bioanalytical Analysis: Blood are collected for pharmacokinetic (PK) analysis prior to exposure, then at 4 hr (±5 min) post exposure, and again on Day 1, Day 2, Day 7 (pre- and 4 hr (±5 min)-post exposure), Day 8, Day 9, Day 10, Day 11, Day 12, Day 13, and Day 14. A total of 0.25 mL is collected at each timepoint. No PK blood is collected from the vehicle control (Group 1) animals; only animals exposed to BisEDT have blood collected for PK analysis. Collected samples are flash frozen without processing for shipment to Medpace for bioanalytical analysis. Additional blood is collected from all animals in all groups for hematology (1 mL) and clinical chemistry (1 mL) at baseline, Day 7 (pre-exposure), and again at euthanasia. Blood (2-2 mL) is collected from all animals at necropsy for coagulation analysis (d-Dimer, fibrinogen, PT, and PTT).
For clinical chemistry analyses, whole blood (1 mL) is placed into serum separator or clot tube and […] by centrifugation at a minimum of 1300 g at 2 to 8° C. for 10 (±1) min. Plasma samples are stored at −70 to −90° C. until analysis.
Clinical chemistry samples are analyzed on a Hitachi Modular Analytics Clinical Chemistry System (Roche Diagnostics, Indianapolis, Ind.).

E. coli ATCC 25922 = conditions: control strain ATCC 25922; per CLSI M100-S24 or provided by Microbion; cited from earlier work
[4] = Grp 1 (1001 Male, 1002 Female, Avg), 3 lines per subject
[5] = Grp 2 (2001 Male, 2002 Female, Avg), 3 lines per subject
[6] = Grp 3 (3001 Male, 3002 Female, Avg), 3 lines per subject
[7] = Grp 4 (4001 Male, 4004 Female, Avg; 4002 Female, 4003 Male), 2-3 lines per subject

CC(S)C(C)S.[Bi] (stereo not shown) [BisBDT, bismuth-2,3-butanedithiol]
reduction in biofilm cell viability [1]: only very modest reductions | MIC (Candida glabrata; ATCC90030, read-out: MIC0 (complete inhibition), isolate ATCC 90030 (Susceptible)): 1 µg/mL | MIC (Candida glabrata; ATCC90030, read-out: MIC2 (50% inhibition), isolate ATCC 90030 (Susceptible)): 0.5 µg/mL | MIC (Candida glabrata; read-out: MIC0 (complete inhibition), isolate ATCC MYA-2950 (Susceptible)): 1 µg/mL | MIC (Candida glabrata; read-out: MIC0 (complete inhibition), isolate MMX 7087 (Susceptible)): 1 µg/mL | MIC (Candida glabrata; read-out: MIC0 (complete inhibition), isolate MMX 7093 (FLU-R)): 2 µg/mL | MIC (Candida glabrata; read-out: MIC0 (complete inhibition), isolate MMX 7101 (FLU-R)): 1 µg/mL | MIC (Candida glabrata; read-out: MIC0 (complete inhibition), isolate MMX 7103 (CASP-R, MICA-R)): 1 µg/mL | MIC (Candida glabrata; read-out: MIC0 (complete inhibition), isolate MMX 7111 (Susceptible)): 1 µg/mL | MIC (Candida glabrata; read-out: MIC0 (complete inhibition), isolate MMX 7285 (CASP-R, MICA-R)): 0.5 µg/mL | MIC (Candida glabrata; read-out: MIC0 (complete inhibition), isolate MMX 7307 (CASP-R, MICA-R, FLU-R)): 1 µg/mL | MIC (Candida glabrata; read-out: MIC0 (complete inhibition), isolate MMX 7549 (Susceptible)): 1 µg/mL | MIC (Candida glabrata; read-out: MIC2 (50% inhibition), isolate ATCC MYA-2950 (Susceptible)): 0.5 µg/mL | MIC (Candida glabrata; read-out: MIC2 (50% inhibition), isolate MMX 7087 (Susceptible)): 0.5 µg/mL | MIC (Candida glabrata; read-out: MIC2 (50% inhibition), isolate MMX 7093 (FLU-R)): 1 µg/mL | MIC (Candida glabrata; read-out: MIC2 (50% inhibition), isolate MMX 7101 (FLU-R)): 0.5 µg/mL | MIC (Candida glabrata; read-out: MIC2 (50% inhibition), isolate MMX 7103 (CASP-R, MICA-R)): 0.5 µg/mL | MIC (Candida glabrata; read-out: MIC2 (50% inhibition), isolate MMX 7111 (Susceptible)): 0.5 µg/mL | MIC (Candida glabrata; read-out: MIC2 (50% inhibition), isolate MMX 7285 (CASP-R, MICA-R)): 0.25 µg/mL | MIC (Candida glabrata; read-out: MIC2 (50% inhibition), isolate MMX 7307 (CASP-R, MICA-R, FLU-R)): 0.5 µg/mL | MIC (Candida glabrata; read-out: MIC2 (50% inhibition), isolate MMX 7549 (Susceptible)): 0.5 µg/mL | MIC (Candida krusei; ATCC6258, read-out: MIC0 (complete inhibition)): 1 µg/mL | MIC (Candida krusei; ATCC14243, read-out: MIC0 (complete inhibition)): 1 µg/mL | MIC (Candida krusei; ATCC96685, read-out: MIC2 (50% inhibition)): 0.25 µg/mL | MIC (Candida krusei; read-out: MIC2 (50% inhibition)): 1 µg/mL | MIC (Candida krusei; read-out: MIC0 (complete inhibition)): 2 µg/mL | MIC (A. niger): 2 µg/mL | MIC ([2]; NRS1 / VISA): 0.12 µg/mL | MIC ([2]; NRS2 / VISA): ≤ 0.06 µg/mL | MIC ([2]; NRS3 / VISA): 0.25 µg/mL | MIC ([2]; NRS4 / VISA): 0.25 µg/mL | MIC ([2]; NRS13 / VISA): 0.12 µg/mL | MIC ([2]; NRS18 / VISA): 0.25 µg/mL | MIC ([2]; NRS22 / VISA): 0.25 µg/mL | MIC ([2]; NRS24 / VISA): 1 µg/mL | MIC ([2]; NRS27 / VISA): 0.25 µg/mL | MIC (S. maltophilia): 0.13 µg/mL

C1C[S][Bi]([S]CC[S][Bi]2[S]CC[S]2)[S]1 [BisEDT, bismuth-1,2-ethanedithiol]
AGR [3, 4]: 2.6 and 1.9 (2×) and 2.1 (2×) | ALB [3, 4]: 3.7 g/dL | ALPK [3, 4]: 125 IU/L and 120 IU/L and 248 IU/L and 243 IU/L and 235 IU/L and 91 IU/L | ALT [3, 4]: 26 IU/L and 27 IU/L and 29 IU/L and 21 IU/L | AST [3, 4]: 33 IU/L (2×) and 29 IU/L (2×) and 27 IU/L | BUN [3, 4]: 13 mg/dL (2×) and 17 mg/dL | CA2 [3, 4]: 10.3 mg/dL | CHOL [3, 4]: 129 mg/dL and 116 mg/dL and 132 mg/dL and 130 mg/dL and 107 mg/dL | CREA [3, 4]: 0.5 mg/dL | GLOB [3, 4]: 1.4 g/dL and 1.5 g/dL and 1.8 g/dL | GLUC [3, 4]: 88 mg/dL and 89 mg/dL and 90 mg/dL and 78 mg/dL and 92 mg/dL (2×) | K [3, 4]: 4.5 mmo/L and 4.7 mmo/L (2×) and 4.2 mmo/L and 5.1 mmo/L | Na [3, 4]: 150 mmo/L | TP [3, 4]: 5.5 g/dL and 4.9 g/dL | TRIG [3, 4]: 32 mg/dL and 29 mg/dL and 53 mg/dL and 39 mg/dL and 38 mg/dL and 37 mg/dL | AGR [3, 5]: 1.9 and 2.0 and 1.7 and 2.3 (2×) | ALB [3, 5]: 3.4 g/dL and 3.7 g/dL | ALT [3, 5]: 22 IU/L (3×) and 18 IU/L and 29 IU/L and 27 IU/L | AST [3, 5]: 48 IU/L and 36 IU/L (2×) and 35 IU/L and 41 IU/L and 38 IU/L | BUN [3, 5]: 12 mg/dL and 16 mg/dL and 14 mg/dL (2×) | CHOL [3, 5]: 114 mg/dL | Cl [3, 5]: 108 mmo/L and 110 mmo/L and 114 mmo/L | GLOB [3, 5]: 2.0 g/dL and 1.9 g/dL and 1.6 g/dL (2×) | GLUC [3, 5]: 91 mg/dL and 97 mg/dL and 95 mg/dL and 89 mg/dL | K [3, 5]: 4.5 mmo/L and 4.9 mmo/L and 5.0 mmo/L and 5.2 mmo/L and 4.6 mmo/L | TP [3, 5]: 5.0 g/dL and 5.5 g/dL and 5.3 g/dL | TRIG [3, 5]: 66 mg/dL and 80 mg/dL and 63 mg/dL and 38 mg/dL and 39 mg/dL and 31 mg/dL | AGR [3, 6]: 2.0 (2×) and 2.1 and 2.3 and 1.8 and 2.6 | ALB [3, 6]: 3.2 g/dL and 3.7 g/dL | ALPK [3, 6]: 90 IU/L | ALT [3, 6]: 26 IU/L and 24 IU/L and 28 IU/L and 20 IU/L (2×) | AST [3, 6]: 33 IU/L and 28 IU/L | BUN [3, 6]: 13 mg/dL and 17 mg/dL and 33 mg/dL and 11 mg/dL and 25 mg/dL | CHOL [3, 6]: 100 mg/dL | CREA [3, 6]: 0.7 mg/dL and 0.5 mg/dL and 0.9 mg/dL | Cl [3, 6]: 110 mmo/L | GLOB [3, 6]: 1.7 g/dL and 2.0 g/dL and 1.4 g/dL | GLUC [3, 6]: 100 mg/dL and 88 mg/dL and 51 mg/dL and 112 mg/dL and 90 mg/dL and 65 mg/dL | K [3, 6]: 4.7 mmo/L and 5.8 mmo/L and 5.5 mmo/L and 5.3 mmo/L | TP [3, 6]: 4.8 g/dL and 5.0 g/dL (2×) and 5.5 g/dL | TRIG [3, 6]: 26 mg/dL and 34 mg/dL (2×) and 52 mg/dL and 43 mg/dL and 58 mg/dL | AGR [3, 7]: 2.3 and 2.0 and 1.7 (2×) and 1.6 | ALB [3, 7]: 3.6 g/dL and 3.2 g/dL | ALT [3, 7]: 27 IU/L (2×) and 25 IU/L and 24 IU/L and 20 IU/L and 21 IU/L and 40 IU/L and 23 IU/L | AST [3, 7]: 32 IU/L (2×) and 34 IU/L and 38 IU/L and 31 IU/L and 35 IU/L and 30 IU/L | BUN [3, 7]: 11 mg/dL (2×) and 16 mg/dL and 15 mg/dL | CHOL [3, 7]: 147 mg/dL and 125 mg/dL and 124 mg/dL and 182 mg/dL and 169 mg/dL and 176 mg/dL | CREA [3, 7]: 0.5 mg/dL | GLOB [3, 7]: 1.6 g/dL and 2.1 g/dL (2×) and 2.0 g/dL | GLUC [3, 7]: 82 mg/dL and 86 mg/dL and 70 mg/dL and 96 mg/dL and 79 mg/dL and 109 mg/dL and 81 mg/dL | K [3, 7]: 4.8 mmo/L and 4.6 mmo/L and 5.1 mmo/L and 4.3 mmo/L and 5.3 mmo/L (2×) and 4.9 mmo/L (2×) | TP [3, 7]: 4.9 g/dL and 5.1 g/dL and 5.6 g/dL and 5.5 g/dL and 5.4 g/dL (2×) | TRIG [3, 7]: 49 mg/dL (2×) and 46 mg/dL and 40 mg/dL and 53 mg/dL (2×) and 44 mg/dL and 34 mg/dL and 41 mg/dL and 55 mg/dL | Expected MIC: goal (acceptable range) (E. coli ATCC 25922): 1 (0.5-2) mcg/mL
